Earlier results in patent US20250255927A1, “COMPOSITIONS AND METHODS FOR ALLEVIATING ADVERSE EFFECTS FROM RESPONSIBLE ALCOHOL CONSUMPTION” (Cheers Health, Inc., priority 2023, published 2025).

Experiments:
[1] = rat models
pain = settings: 1 g of salicin

Compound | time to reach the brain without any metabolic change [1] [min] | amount of aspirin with comparable pain relief effect (pain) [mg]
CCNC(=O)CC[C@H](N)C(=O)O [L-Theanine] | ≤ 30 | –
OCc1ccccc1O[C@@H]1O[C@H](CO)[C@@H](O)[C@H](O)[C@H]1O [salicin] | – | ~620
